According to EP0598515A1, “Method for herbicidal activity-enhancing, activity-enhanced herbicidal composition and activity-enhancing composition” (ISHIHARA SANGYO KAISHA LTD., priority 1992, dated 1994):
Values joined by “and” are separate entries in the source; they are usually repeats but may differ in a detail not shown here. Identical values can stand only once.

Tested on: Crabgrass (Digitaria sanginalis L.)
Assay: Test Example 5: pot test with kinds of vegetable oil
Type: in vivo
Conditions: Example 7 water dispersible granules, 0.2% by volume Frigate + 0.4% by volume vegetable oil (90 parts oil, 10 parts Geronol VO/278), 23 days after treatment, duplicate
Procedure: Crabgrass (Digitaria sanginalis L.) seeds were sown in 1/1,000,000-hectare pots filled with upland soil and arranged in a duplicate system. When the crabgrass plants grew to a 3.5- to 4.0-leaf stage, water dispersible granules obtained in Example 7 described hereinbefore was diluted with 200 liters/hectare of water containing 0.2% by volume of Frigate and 0.4% by volume of a vegetable oil which was previously prepared by mixing with a predetermined amount of Geronol VO/278 (trade name) and was applied foliarly to the plants with a small spray gun.
Twenty three days after treatment, the growth inhibition of the plants was evaluated with visual observation in the same manner as in Test Example 1 and are shown in Table 5.
In the test, a vegetable oil, a fatty acid originated therefrom and an alkylester of the fatty acid were used as the vegetable oil and which are each of mixture of 10 parts by weight of Geronol VO/278 and 90 parts by weight of the following vegetable oil, fatty acids originated from vegetable oils and alkylesters of fatty acids. • (a) corn oil • (b) fatty acid originated from corn oil (prepared by hydrolysis of corn oil) • (c) methylester of (b) • (d) methylester of fatty acid originated from cottonseed oil • (e) methylester of fatty acid originated from rapeseed oil • (f) methyl oleate (trade name: ADJ-100) • (g) butyl oleate (trial product No. 93091; produced by Takemoto Oils and Fats) TABLE 5

Structure (SMILES): CCCCCCCC/C=C\CCCCCCCC(=O)OCCCC [g, butyl oleate]
- Growth Inhibition (%) of Crabgrass (Compound A 2.5 g/ha): 70%
- Growth Inhibition (%) of Crabgrass (Compound A 5 g/ha): 95% and 80%

Structure (SMILES): CCCCCCCC/C=C\CCCCCCCC(=O)OC [f, methyl oleate]
- Growth Inhibition (%) of Crabgrass (Compound A 2.5 g/ha): 60%
- Growth Inhibition (%) of Crabgrass (Compound A 5 g/ha): 90%
